Results published in US20020128438A1, “DNA cassette for the production of secretable recombinant trimeric TRAIL proteins, tetracycline/ doxycycline-inducible adeno-associated virus vector, their combination and use in gene therapy” (priority 2000, published 2002).
*1 amine or outer side, *2 acyl side, *3 side chain or, on linkers, in order; H or OH if unused. Where a SMILES comes first, the peptide text is derived from it. Bridges are numbered along the chain shown (N, C = ends). Roman numbers before positions name the chains, in order. [ ]: non-standard residue; d: D form. Actinocin(9to1) = Cc1c2oc3c(C)ccc(C(=O)[*:1])c3nc-2c(C(=O)[*:2])c(N)c1=O; NMeV = CN[C@H](C(=O)O)C(C)C; Sar = CNCC(=O)O

How the values were obtained:
[1] = test system: various cancer cell lines
[2] = test system: monkey; settings: cited from earlier work
[3] = test system: mice; settings: systemic delivery; cited from earlier work

Cc1c2oc3c(C)ccc(C(=O)N[C@@H]4C(=O)N[C@H](C(C)C)C(=O)N5CCC[C@H]5C(=O)N(C)CC(=O)N(C)[C@@H](C(C)C)C(=O)O[C@@H]4C)c3nc-2c(C(=O)N[C@@H]2C(=O)N[C@H](C(C)C)C(=O)N3CCC[C@H]3C(=O)N(C)CC(=O)N(C)[C@@H](C(C)C)C(=O)O[C@@H]2C)c(N)c1=O [ActD, Actinomycin D] (I: T[dV]P[Sar][NMeV] / II: T[dV]P[Sar][NMeV]; ester I:1-I:C, II:1-II:C; linker I:N-II:N via Actinocin(9to1))
concentration at which enhancing activity of ActD was obtained ([1]; enhancement of TRAIL-induced apoptosis): 100 ng/mL
effect of ActD on TRAIL-induced apoptosis ([1]; various cancer cell lines): greatly enhanced

TRAIL: TNF family member, type II transmembrane apoptosis-inducing ligand
cytotoxicity in monkey [2]: no detectable cytotoxicity
cytotoxicity in mice [3]: no detectable cytotoxicity
